The values below come from ChEMBL document CHEMBL1201862, “PubChem BioAssay data set” (2004).

Among the test systems are T47D; COLO 205; MCF7; NCI-H522; MDA-MB-231; CAKI-1; UO-31; SN12C; SR; KM12; NCI/ADR-RES; SNB-75; CCRF-CEM; HCT-116; 786-0; HCC 2998; A498; SF-295; EKVX; UACC-257.
Experiment in all cases: NCI anticancer screen, dose series, 48 h

Each structure is given as a SMILES string.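 Protocol summary: plate cells (96-well), add compound at 5 concentrations, incubate 48 h, interpolate endpoints linearly. GI50: concentration for 50% inhibition of growth.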 Calls of active or inactive are those of the source. Rule as the data show it: active = GI50 up to about 1.1 µM and inactive = higher.

`Cc1ccnc2sc3ccccc3c(=O)c12`: the GI50 in the assay on T47D is 55.3 µM (inactive); with COLO 205, 45.7 µM (inactive); in the assay with MCF7 it was 38.4 µM (inactive); in the assay with NCI-H522 it was 34.7 µM (inactive); with MDA-MB-231 it was 29.3 µM (inactive); in the assay with CAKI-1, 23.6 µM (inactive). The GI50 was 25.4 µM (inactive) in the assay on UO-31; 40.4 µM (inactive) in the assay on SN12C; 54.8 µM (inactive) in the assay with SR; 53.7 µM (inactive) with KM12; 48.5 µM (inactive) in the assay on NCI/ADR-RES; 22.4 µM (inactive) in the assay on SNB-75. The GI50 in the assay with CCRF-CEM was 40.9 µM (inactive); in the assay on HCT-116, 32 µM (inactive); in the assay with 786-0, 65 µM (inactive); in the assay on HCC 2998 it was 42.3 µM (inactive); in the assay with A498 it was 29.8 µM (inactive); with SF-295 it was 50.1 µM (inactive). Further, the results for the GI50 in the assay on EKVX and in the assay with UACC-257 were 18 µM (inactive) and 55.2 µM (inactive), respectively.

Regarding `CO[C@H]1[C@H](O)[C@H](O[C@H]2CC[C@@]3(C)[C@H](CC[C@@H]4[C@@H]3CC[C@]3(C)[C@@H](C5=CC(=O)OC5)CC[C@]43O)C2)O[C@@H](C)[C@@H]1O` [NERIIFOLIN], the GI50 is 0.000628 µM (active) in the assay on T47D; 0.0018 µM (active) in the assay on COLO 205; 0.00076 µM (active) with MCF7; 0.000151 µM (active) in the assay with NCI-H522; 0.00165 µM (active) in the assay with MDA-MB-231; 0.000572 µM (active) in the assay on CAKI-1. The GI50 in the assay on UO-31 was 0.000902 µM (active); with SN12C, 0.000211 µM (active); with SR, < 0.01 µM (active); in the assay with KM12, 0.00152 µM (active); with NCI/ADR-RES, 0.000546 µM (active); in the assay on SNB-75 it was 0.000483 µM (active). The GI50 is 0.000362 µM (active) with CCRF-CEM; 0.000689 µM (active) in the assay with HCT-116; 0.000439 µM (active) in the assay on 786-0; 0.0094 µM (active) in the assay with HCC 2998; 0.00863 µM (active) in the assay on A498; 0.00056 µM (active) in the assay with SF-295. For the same molecule, the GI50 in the assay with EKVX is 0.000473 µM (active); in the assay with UACC-257, 0.00167 µM (active).

With `CC(=O)[C@H]1CC[C@H]2[C@@H]3CCC4=CC(=O)CC[C@]4(C)[C@H]3CC[C@]12C` [PROGESTERONE], the GI50 in the assay with T47D was 20.1 µM (inactive); with COLO 205, 16 µM (inactive); in the assay on MCF7, 21.7 µM (inactive); with NCI-H522, 15.6 µM (inactive); in the assay on MDA-MB-231, 17.2 µM (inactive); in the assay with CAKI-1 it was 28.5 µM (inactive). For the same molecule, the GI50 was 11.4 µM (inactive) in the assay with UO-31; 18.6 µM (inactive) with SN12C; > 100 µM (inactive) in the assay with SR; 16.7 µM (inactive) with KM12; 13.7 µM (inactive) in the assay on NCI/ADR-RES; 26.1 µM (inactive) with SNB-75. For the same molecule, the GI50 in the assay on CCRF-CEM is 15.7 µM (inactive); in the assay on HCT-116, 14.5 µM (inactive); with 786-0 it was 20.6 µM (inactive); in the assay with HCC 2998, 16.9 µM (inactive); in the assay on A498, 24.5 µM (inactive); with SF-295, 25.9 µM (inactive). For the same molecule, the GI50 is 1.16 µM (inactive) in the assay on EKVX and 12.9 µM (inactive) with UACC-257.

In the case of `O=C1NC(=O)[C@@]2(CC[C@@H](O)C2)c2ccncc21` [SESBANINE], the GI50 in the assay with T47D, in the assay with COLO 205, with MCF7, in the assay on NCI-H522, in the assay with MDA-MB-231 and with CAKI-1 was > 100 µM (inactive) in each case. The GI50 in the assay on UO-31, with SN12C, in the assay on SR, in the assay with KM12, in the assay with NCI/ADR-RES and in the assay on SNB-75 was > 100 µM (inactive) throughout. Besides, the GI50 in the assay with CCRF-CEM is > 100 µM (inactive); in the assay with HCT-116 it was > 100 µM (inactive); with 786-0, > 100 µM (inactive); in the assay with HCC 2998 it was > 100 µM (inactive); with A498, > 100 µM (inactive); in the assay on SF-295 it was > 10 µM (inactive). For the same molecule, the GI50 with EKVX and in the assay on UACC-257 was > 100 µM (inactive) each time.
